According to PubChem BioAssay AID2008 (University of Pittsburgh Molecular Library Screening Center, 2009):

These compounds were tested on Leishmania major promastigote growth inhibition (assay: antileishmanial activity against L. major promastigotes – EC50, dose response (AID 2008)).

SMILES	EC50
O=C(COc1ccccc1F)NC1CCN(Cc2ccccc2)CC1	140 nM
Cc1ccc(-c2cc(-c3ccc(C)cc3)[n+](C)o2)cc1	183 nM
O=c1c(Cl)nc2cc(Cl)ccc2n1CCNc1ncc(C(F)(F)F)cc1Cl	512 nM
CCOC(=O)c1c2c(n(C)c1C)C(=O)C(=O)c1ccc(Br)cc1-2	85.7 nM
CN(C)c1nc(-c2ccccn2)nnc1-c1ccccc1	1460 nM
Cc1cc(C(=O)CCl)c(C)n1Cc1ccco1	783 nM
O=C(NCC(c1cccnc1)N1CCN(c2ccc(F)cc2)CC1)Oc1ccccc1 (stereo not drawn)	111 nM
N#CC(c1ccc(Cl)cc1)c1ccc2c(C(F)(F)F)cc(C(F)(F)F)nc2n1 (stereo not drawn)	564 nM
Clc1ccccc1C(c1ccccc1)(c1ccccc1)n1ccnc1	145 nM
CCOC(=O)C(=Cc1cc(=O)c(OC)co1)C(=O)OCC	165 nM
COC(=O)c1cccc(Cn2c(Cl)c(/C=N/Nc3ccccc3C)sc2=O)c1	528 nM
CC1(C)Cc2ccccc2-c2nnc(-c3ccc4ccccc4n3)n21	1020 nM
CCCCCCCCCCCCCCCC[n+]1ccc(/C=N/O)cc1	9.38 nM
O=[N+]([O-])c1ccc(NNC(=S)Nc2ccc(F)cc2)cc1	449 nM
COC(=O)C1CN(C#N)N(c2ccc(Cl)cc2)C12c1ccccc1-c1ccccc12 (stereo not drawn)	72.9 nM
O=S(=O)(CCSc1nc2ccccc2s1)c1nc2ccccc2s1	716 nM
COC(=O)c1cc2ccsc2n1Cc1nc(-c2ccc(OC)cc2)oc1C	104 nM
CC1=C(C(=O)Nc2cc(-c3cccc(F)c3)[nH]n2)C2(CCCCC2)OC1=O	379 nM
CCCc1n[nH]c2c1/C(=N/O)CC(c1ccccc1)C2 (stereo not drawn)	1500 nM
C[C@@]1(CO)[C@H](O)CC[C@@]2(C)[C@H]1CC[C@H]1C[C@@H]3C[C@@]12CC[C@]3(O)CO	121 nM
Cc1cccc(OCCn2c(NC(=O)c3ccco3)nc3ccccc32)c1	1870 nM
N=C(N)SCc1cn(-c2ccccc2)nc1-c1ccc(Br)cc1	1300 nM
O=[N+]([O-])c1ccc(-c2nc(-c3cccs3)c(-c3cccs3)[nH]2)cc1	1970 nM
